In patent US20240148821A1, “PHARMACEUTICAL USE OF CYCLIC PEPTIDE COMPOUND” (CHUGAI SEIYAKU KABUSHIKI KAISHA, priority 2021, published 2024):
Bridge positions count the residues as written; N and C are the ends. Square brackets hold non-standard residues; d marks the D form. Peptide text beside a SMILES is read from it. * marks the point of attachment. hPhe(3-Cl-4-CF3) = N[C@@H](CCc1ccc(C(F)(F)F)c(Cl)c1)C(=O)O; hPhe(3-F,4-CF3) = N[C@@H](CCc1ccc(C(F)(F)F)c(F)c1)C(=O)O; NMePhe(4-Me) = CN[C@@H](Cc1ccc(C)cc1)C(=O)O; NMeAla(cPent) = CN[C@@H](CC1CCCC1)C(=O)O; NMeGly(cPent) = CN[C@H](C(=O)O)C1CCCC1; NMehPhe = CN[C@@H](CCc1ccccc1)C(=O)O; NMeCha = CN[C@@H](CC1CCCCC1)C(=O)O; cisHyp = O=C(O)[C@@H]1C[C@H](O)CN1; NMeD = CN[C@@H](CC(=O)O)C(=O)O; NMeL = CN[C@@H](CC(C)C)C(=O)O; NMeV = CN[C@H](C(=O)O)C(C)C; d(β3hA) = C[C@@H](N)CC(=O)O; NMeS = CN[C@@H](CO)C(=O)O; NMeA = CN[C@@H](C)C(=O)O; Piperidide = C1CCN(*)CC1; dNMeA = CN[C@H](C)C(=O)O; Ac5c = NC1(C(=O)O)CCCC1; Aze = O=C(O)[C@@H]1CCN1; CH2CMe2OH = CC(C)(O)C*; Aib = CC(C)(N)C(=O)O; Isopentyl = CC(C)CC*; NEtG = CCNCC(=O)O; Sar = CNCC(=O)O

Tests used:
[1] = biological target: protein-protein interaction between Kras and SOS1 (biotin-tagged human Kras loaded with GDP, His-tagged human SOS1) (Homo sapiens (Human), UniProt P01116, G12D); experiment: Protein-protein interaction inhibition between Kras and SOS1 (KrasG12D-SOS PPI) using AlphaScreen; assay type: biochemical; conditions: AlphaScreen; biotin-tagged human Kras loaded with GDP, His-tagged human SOS1; read-out: KRAS G12D-SOS PPI IC50;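 note: kras produced in E. coli, Ni-coupled donor beads and streptavidin acceptor beads, excitation 680 nm with emission detected at 520–620 nm via singlet oxygen transfer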
[2] = test system: Human pancreatic cancer cell line AsPC-1 (G12D mutation Kras); experiment: AsPC-1 cell growth inhibition (AsPC-1 CGI); assay type: cell-based; conditions: read-out: AsPC-1 cell growth inhibition, 50% growth inhibitory concentration (IC50 value); 96 hours, CellTiter-Glo, values classified in ranges
Description: Test compounds were serially dilated with dimethyl sulfoxide, and 200 nL was then dispensed to a U-bottom 96-well plate using Labcyte Echo. […] The cell suspension was dispensed to a. plate containing a test compound at 100 μL per well and incubated at 37° C. in a 5% carbon dioxide gas incubator. 96 hours later, 80 μL of CellTiter-Glo (Promega) was added to each well and fluorescence was measured.

Row | SMILES | IC50 [1] [µM] | IC50 [2] [µM]
1 | CC[C@H](C)[C@@H]1NC(=O)[C@H](CC(C)C)N(C)C(=O)C[C@@H](C)NC(=O)[C@H](CC(C)C)N(C)C(=O)C(C)(C)NC(=O)[C@H](COCC(C)(C)O)N(C)C(=O)[C@H](CCc2ccc(C(F)(F)F)c(Cl)c2)NC(=O)CN(C)C(=O)[C@H](COCCC(C)C)N(C)C(=O)CN(C)C(=O)CN(CC)C1=O [Compound 1519] (cyclo([Aib][NMeL][d(β3hA)][NMeL]I[NEtG][Sar][NMeS](Isopentyl)[Sar][hPhe(3-Cl-4-CF3)][NMeS](CH2CMe2OH))) | 0.12 | > 0.5
2 | CC[C@H](C)[C@@H]1NC(=O)[C@H](CC(C)C)N(C)C(=O)C[C@@H](C)NC(=O)[C@H](CC(C)C)N(C)C(=O)C2(CCCC2)NC(=O)[C@@H]2C[C@H](O)CN2C(=O)[C@H](CCc2ccc(C(F)(F)F)c(F)c2)NC(=O)CN(C)C(=O)[C@H](CC2CCCCC2)N(C)C(=O)CN(C)C(=O)CN(C)C1=O [Compound 1529] (cyclo([Ac5c][NMeL][d(β3hA)][NMeL]I[Sar][Sar][NMeCha][Sar][hPhe(3-F,4-CF3)][cisHyp])) | 0.011 | > 0.5
3 | CC[C@H](C)[C@@H]1NC(=O)[C@H](C)N(C)C(=O)C[C@@H](C)NC(=O)[C@H](C2CCCC2)N(C)C(=O)C2(CCCC2)NC(=O)[C@@H]2CCCN2C(=O)[C@H](CCc2ccc(C(F)(F)F)c(Cl)c2)NC(=O)[C@@H](C)N(C)C(=O)[C@H](Cc2ccc(C)cc2)N(C)C(=O)[C@@H]2CCN2C(=O)[C@H](C)N(C)C1=O [Compound 1536] (cyclo([Ac5c][NMeGly(cPent)][d(β3hA)][NMeA]I[NMeA][Aze][NMePhe(4-Me)][dNMeA][hPhe(3-Cl-4-CF3)]P)) | 0.021 | > 0.5
4 | CC[C@H](C)[C@@H]1NC(=O)[C@H](C)N(C)C(=O)C[C@@H](C)NC(=O)[C@H](C2CCCC2)N(C)C(=O)C2(CCCC2)NC(=O)[C@@H]2CCCN2C(=O)[C@H](CCc2ccc(C(F)(F)F)c(Cl)c2)NC(=O)[C@@H](C)N(C)C(=O)[C@H](CC2CCCCC2)N(C)C(=O)[C@@H]2CCN2C(=O)CN(C)C1=O [Compound 1539] (cyclo([Ac5c][NMeGly(cPent)][d(β3hA)][NMeA]I[Sar][Aze][NMeCha][dNMeA][hPhe(3-Cl-4-CF3)]P)) | 0.054 | > 0.5
5 | CC[C@H](C)[C@@H]1NC(=O)[C@H](C)N(C)C(=O)C[C@@H](C(=O)N2CCCCC2)N(C)C(=O)[C@H](C(C)C)N(C)C(=O)C2(CCCC2)NC(=O)[C@@H]2CCCN2C(=O)[C@H](CCc2ccc(C(F)(F)F)c(Cl)c2)NC(=O)CN(C)C(=O)[C@H](CC2CCCCC2)N(C)C(=O)[C@@H]2CCN2C(=O)[C@H](CCc2ccccc2)N(C)C1=O [Compound 1559] ([NMeA]I[NMehPhe][Aze][NMeCha][Sar][hPhe(3-Cl-4-CF3)]P[Ac5c][NMeV][NMeD]-Piperidide; lactam N-11) | 0.028 | > 0.5
6 | CC[C@H](C)[C@@H]1NC(=O)[C@H](C)N(C)C(=O)C[C@@H](C(=O)N2CCCCC2)N(C)C(=O)[C@H](C(C)C)N(C)C(=O)C2(CCCC2)NC(=O)[C@@H]2CCCN2C(=O)[C@H](CCc2ccc(C(F)(F)F)c(Cl)c2)NC(=O)CN(C)C(=O)[C@H](CC2CCCCC2)N(C)C(=O)[C@@H]2CCN2C(=O)[C@H](C)N(C)C1=O [Compound 1562] ([NMeA]I[NMeA][Aze][NMeCha][Sar][hPhe(3-Cl-4-CF3)]P[Ac5c][NMeV][NMeD]-Piperidide; lactam N-11) | 0.0048 | > 0.5
7 | CC[C@H](C)[C@@H]1NC(=O)[C@H](C)N(C)C(=O)C[C@@H](C(=O)N2CCCCC2)N(C)C(=O)[C@H](C(C)C)N(C)C(=O)C2(CCCC2)NC(=O)[C@@H]2CCCN2C(=O)[C@H](CCc2ccc(C(F)(F)F)c(Cl)c2)NC(=O)CN(C)C(=O)[C@H](CC2CCCCC2)N(C)C(=O)[C@@H]2CCN2C(=O)[C@H](CC2CCCC2)N(C)C1=O [Compound 1566] ([NMeA]I[NMeAla(cPent)][Aze][NMeCha][Sar][hPhe(3-Cl-4-CF3)]P[Ac5c][NMeV][NMeD]-Piperidide; lactam N-11) | 0.02 | > 0.5
